Earlier results as cited in patent US9580717B2, “Heterologous hosts” (priority 2009, dated 2017).

Assays:
P388 leukaemia cells = conditions: mouse, in vivo
[1] = test system: malignant mammalian cells

Row | Structure (SMILES) | cytotoxicity to tumour cell lines (tumour cell lines) | lifespan of mice inoculated with P388 leukaemia cells (P388 leukaemia cells) | cytopathic activity against malignant mammalian cells [1]
1 | CCCCCCC/C=C/C=C/C(=O)N[C@H](C(=O)N[C@H]1C[C@@H](O)CCNC(=O)/C=C/[C@H](C)NC1=O)[C@@H](C)O [Glidobactin A] | cytotoxic to tumour cell lines | can prolong the lifespan | –
2 | C[C@H]1CCC(C2=C(CC(=O)NCC(=O)c3csc(C(=O)C(=O)c4csc(CNC(=O)CC5=C(C6=N[C@@H](C)CC6)C(=O)NC56CC6)n4)n3)C3(CC3)NC2=O)=N1 [Colibactin] | – | – | cytopathic activity
